In ChEMBL document CHEMBL1139762, “Novel substituted tetrahydrotriazaacenaphthylene derivatives as potent CRF1 receptor antagonists” (Bioorg Med Chem Lett, 2007):

Key:
[1] = target: T1, Corticotropin-releasing factor receptor 1 (Homo sapiens, UniProt P34998); test: Displacement of [125I]CRF from human recombinant CRF1 receptor expressed in CHO cell membrane; assay type: cell membranes
T1 sequence (P34998 whole entry): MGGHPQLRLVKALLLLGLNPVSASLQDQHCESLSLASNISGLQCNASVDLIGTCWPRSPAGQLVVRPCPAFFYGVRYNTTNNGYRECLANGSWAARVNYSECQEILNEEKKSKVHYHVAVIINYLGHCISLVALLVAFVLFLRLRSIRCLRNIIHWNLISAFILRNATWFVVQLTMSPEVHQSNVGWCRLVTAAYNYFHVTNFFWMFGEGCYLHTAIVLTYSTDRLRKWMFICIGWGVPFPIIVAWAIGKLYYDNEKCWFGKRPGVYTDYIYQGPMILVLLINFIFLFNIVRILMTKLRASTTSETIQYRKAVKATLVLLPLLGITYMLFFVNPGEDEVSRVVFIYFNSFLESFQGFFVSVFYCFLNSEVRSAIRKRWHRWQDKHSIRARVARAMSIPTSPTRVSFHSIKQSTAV

[2] = AUC in Sprague-Dawley rat at 1 mg/kg, po and 0.4 mg/kg, iv; assay type: ADME, organism-based; conditions: plasma
[3] = Plasma clearance in Sprague-Dawley rat at 1 mg/kg, po and 0.4 mg/kg, iv; assay type: ADME, organism-based
[4] = Oral bioavailability in Sprague-Dawley rat at 1 mg/kg; assay type: ADME, organism-based; conditions: in vivo
[5] = Half life in Sprague-Dawley rat at 1 mg/kg, po and 0.4 mg/kg, iv; assay type: ADME, organism-based; conditions: in vivo
[6] = Volume of distribution at steady state in Sprague-Dawley rat at 1 mg/kg, po and 0.4 mg/kg, iv; assay type: ADME, organism-based; conditions: in vivo, read-out: Vdss

SMILES | IC50 [1] | AUC [2] | clearance [3] | bioavailability [4] | half-life [5] | Vd [6]
CCC(CC)n1cc2c3c(nc(C)nc31)N(c1ccc(C(F)(F)F)cc1C(F)(F)F)CC2 | 0.0251 µM | – | – | – | – | –
CCCC(CCC)N1CCC2CN(c3ccc(Cl)cc3Cl)c3nc(C)nc1c32 (stereo not drawn) | 0.0316 µM | – | – | – | – | –
CCCC(CCC)n1cc2c3c(nc(C)nc31)N(c1ccc(C#N)cc1C)CC2 | 0.0501 µM | – | – | – | – | –
CCC(COC)n1cc2c3c(nc(C)cc31)N(c1ccc(OC)cc1C)CC2 (stereo not drawn) | 0.158 µM | – | – | – | – | –
CCCC(CCC)n1cc2c3c(nc(C)cc31)N(c1ccc(OC)c(F)c1)CC2 | 0.0398 µM | 131 ng·h/mL | 47 mL/min/kg | 37% | 8.6 h | 24 L/kg
CCC(CC)n1cc2c3c(nc(C)cc31)N(c1ccc(C(F)(F)F)cc1C(F)(F)F)CC2 | 0.126 µM | 222 ng·h/mL | 21 mL/min/kg | 28% | 7.6 h | 6.8 L/kg
CCCC(CCC)n1cc2c3c(nc(C)cc31)N(c1ccc(C(F)(F)F)cc1C(F)(F)F)CC2 | 0.1 µM | 1480 ng·h/mL | 8 mL/min/kg | 71% | 5.3 h | 2.5 L/kg
CCC(CC)n1cc2c3c(nc(C)cc31)N(c1ccc(OC)cc1)CC2 | 0.0631 µM | – | – | – | – | –
CCCC(CCC)n1cc2c3c(nc(C)cc31)N(c1ccc(C#N)cc1C)CC2 | 0.00398 µM | < 15 ng·h/mL | 54 mL/min/kg | < 5% | 6.7 h | 17 L/kg
CCC(COC)n1cc2c3c(nc(C)cc31)N(c1ccc(C#N)cc1C)CC2 (stereo not drawn) | 0.0398 µM | – | – | – | – | –
CCC(CC)n1cc2c3c(nc(C)cc31)N(c1ccc(C#N)cc1C)CC2 | 0.0126 µM | – | – | – | – | –

The remaining compounds from weak to strong by IC50 [1], led by results:

IC50 [1] | AUC [2] | clearance [3] | bioavailability [4] | half-life [5] | Vd [6] | SMILES
0.126 µM | – | – | – | – | – | CCCC(CCC)n1cc2c3c(nc(C)cc31)N(c1ccc(OC)cc1C)CC2
0.0794 µM | – | – | – | – | – | CCC(CC)n1cc2c3c(nc(C)cc31)N(c1ccc(OC(F)(F)F)cc1C)CC2
0.0501 µM | – | – | – | – | – | CCC(CC)n1cc2c3c(nc(C)cc31)N(c1ccc(OC)c(F)c1)CC2
0.0398 µM | – | – | – | – | – | COCC(COC)Nc1nc(C)nc2c(-c3ccc(Cl)cc3Cl)c(C)nn12
0.0158 µM | – | – | – | – | – | CCCC(CCC)n1cc2c3c(nc(C)nc31)N(c1ccc(C(F)(F)F)cc1C(F)(F)F)CC2
0.0158 µM | – | – | – | – | – | CCCCN(CC)c1nc(C)nc2c1c(C)cn2-c1c(C)cc(C)cc1C [CP-154526]
0.0126 µM | – | – | – | – | – | CCC(CC)n1cc2c3c(nc(C)cc31)N(c1ccc(OC)cc1C)CC2
